ChEMBL document CHEMBL2177104, “Identification of antitubercular benzothiazinone compounds by ligand-based design” (J Med Chem, 2012)
≈ marks a conversion by molar mass, not a printed value.

Test system: Mycobacterium tuberculosis
Test: Antimycobacterial activity against multidrug-resistant Mycobacterium tuberculosis 2745/09
Type: functional

Row | SMILES | MIC [µg/mL]
1 | O=c1nc(N2CCC(c3ccccc3)CC2)sc2c([N+](=O)[O-])cc(C(F)(F)F)cc12 | ≤ 0.0125
2 | CN(c1nc(=O)c2cc(C(F)(F)F)cc([N+](=O)[O-])c2s1)[C@H]1CCN(Cc2ccccc2)C1 | > 0.03
3 | CCCOCC1COC2(CCN(c3nc(=O)c4cc(C(F)(F)F)cc([N+](=O)[O-])c4s3)CC2)O1 (configuration not stated) | ≤ 0.015
4 | CN(C)c1ccc(CN(C)c2nc(=O)c3cc(C(F)(F)F)cc([N+](=O)[O-])c3s2)cc1 | 0.03 (≈ 0.0684 µM)
5 | O=c1nc(N2CCC(F)(F)CC2)sc2c([N+](=O)[O-])cc(C(F)(F)F)cc12 | ≤ 0.125
6 | COC(=O)C1CN(c2nc(=O)c3cc(C(F)(F)F)cc([N+](=O)[O-])c3s2)CCC12OC[C@H](C)O2 (some centres not stated) | > 0.1
7 | CN(C(=O)CN1CCN(c2nc(=O)c3cc(C(F)(F)F)cc([N+](=O)[O-])c3s2)CC1)c1ccccc1 | 0.03 (≈ 0.0591 µM)
8 | COC(=O)[C@@H]1OC2(CCN(c3nc(=O)c4cc(C(F)(F)F)cc([N+](=O)[O-])c4s3)CC2)O[C@H]1c1ccccc1 | > 0.03
9 | C[C@H]1COC2(CCN(c3nc(=O)c4cc(C(F)(F)F)cc([N+](=O)[O-])c4s3)CC2)O1 [BTZ-043] | ≤ 0.015
10 | O=c1nc(NCc2ccc3c(c2)OCCO3)sc2c([N+](=O)[O-])cc(C(F)(F)F)cc12 | 0.03 (≈ 0.0683 µM)
11 | O=c1nc(N2CCN(c3nccs3)CC2)sc2c([N+](=O)[O-])cc(C(F)(F)F)cc12 | ≤ 0.125
12 | Cc1ccc(CNc2nc(=O)c3cc(C(F)(F)F)cc([N+](=O)[O-])c3s2)n1C | ≤ 0.125
